Measurements: PubChem BioAssay (NCI)
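Each compound was tested at five concentrations against cells in 96-well plates for 48 hours. The concentration for 50% growth inhibition is given as GI50. Definition used: TGI = concentration required for complete inhibition of growth.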

Legend:
Assay in all cases: NCI anticancer screen, dose series, 48 h
NCI-H522 lung = system: NCI-H522 lung
MCF7 breast = system: MCF7 breast
MALME-3M melanoma = system: MALME-3M melanoma
UO-31 renal = system: UO-31 renal
U251 CNS = system: U251 CNS
HOP-92 NSCLC = system: HOP-92 NSCLC
T-47D breast = system: T-47D breast
OVCAR-3 ovarian = system: OVCAR-3 ovarian
SN12C renal = system: SN12C renal
A549 NSCLC = system: A549 NSCLC

SMILES	GI50 (NCI-H522 lung)	TGI (NCI-H522 lung)	GI50 (MCF7 breast)	TGI (MCF7 breast)	GI50 (MALME-3M melanoma)	TGI (MALME-3M melanoma)	GI50 (UO-31 renal)	TGI (UO-31 renal)	GI50 (U251 CNS)	TGI (U251 CNS)	GI50 (HOP-92 NSCLC)	TGI (HOP-92 NSCLC)	GI50 (T-47D breast)	TGI (T-47D breast)	GI50 (OVCAR-3 ovarian)	TGI (OVCAR-3 ovarian)	GI50 (SN12C renal)	TGI (SN12C renal)	GI50 (A549 NSCLC)	TGI (A549 NSCLC)
Cc1nc2ccc(NC(=O)CCNC(=O)CCCc3ccc(CC(C(=O)O)C(=O)O)cc3)cc2s1	> 100 µM	> 100 µM	> 100 µM	> 100 µM	> 100 µM	> 100 µM	> 100 µM	> 100 µM	> 100 µM	> 100 µM	> 100 µM	> 100 µM	> 100 µM	> 100 µM	> 100 µM	> 100 µM	> 100 µM	> 100 µM	> 100 µM	> 100 µM
Cc1c2c(c(C)c3c4c(oc13)CCCC4)C=NCC2	–	31.3 µM	–	30.4 µM	–	32.6 µM	–	25.8 µM	–	26.8 µM	–	25.4 µM	–	> 100 µM	–	31.5 µM	–	31.7 µM	–	32.4 µM
COc1cc(C)c(C2NC(=O)c3ccccc3N2)cc1C (stereo not given)	–	0.713 µM	–	> 89 µM	–	> 100 µM	–	> 100 µM	–	13.9 µM	–	> 86.5 µM	–	> 100 µM	–	0.518 µM	–	> 100 µM	–	> 100 µM
CN(C)CCSS(=O)(=O)O	–	> 100 µM	–	> 100 µM	–	> 100 µM	–	> 100 µM	–	> 100 µM	–	> 100 µM	–	> 100 µM	–	> 100 µM	–	> 100 µM	–	> 100 µM
O=C1CC(c2[nH]nc3ccccc23)C(=O)N1c1ccccc1 (stereo not given)	–	> 100 µM	–	> 100 µM	–	> 100 µM	–	> 100 µM	–	> 100 µM	–	> 100 µM	–	> 100 µM	–	> 100 µM	–	> 100 µM	–	> 100 µM
O=C1/C(=C/c2ccccc2)CN(C(=O)CCN2CCCC2)C/C1=C\c1ccccc1	–	2.8 µM	–	2.63 µM	–	11.4 µM	–	7.73 µM	–	2.51 µM	–	14.8 µM	–	5.61 µM	–	7.66 µM	–	3.16 µM	–	14.6 µM
COc1ccc(-c2nc(-c3nc4ccc(F)cc4[nH]3)c3ccccn23)cc1	4.49 µM	25 µM	6.15 µM	> 100 µM	5.32 µM	27.1 µM	6.99 µM	56.2 µM	13.6 µM	51.3 µM	3.67 µM	43.8 µM	3.55 µM	20.8 µM	6.14 µM	27.1 µM	13.3 µM	> 100 µM	3.96 µM	28.4 µM
O=C(NCCc1ccccn1)OCc1nc2nc(Cl)nc(N3CCOCC3)c2[nH]1	1.93 µM	4.96 µM	1.59 µM	5.17 µM	1.62 µM	3.1 µM	1.28 µM	2.55 µM	3.39 µM	12.2 µM	1.15 µM	3.81 µM	2.13 µM	6.48 µM	1.26 µM	2.73 µM	1.5 µM	3.19 µM	7.16 µM	24.9 µM
OCc1ccc(-c2cscc2-c2ccc(CO)o2)o1	> 93.3 µM	> 100 µM	0.57 µM	25.1 µM	> 100 µM	> 100 µM	56.1 µM	> 100 µM	44.1 µM	> 100 µM	16.1 µM	> 94 µM	1.46 µM	9.65 µM	4.04 µM	30.6 µM	> 100 µM	> 100 µM	3.89 µM	30.6 µM
Cc1nc2c(n1C)C(=O)c1ccccc1C2=O	40.6 µM	> 100 µM	46.1 µM	> 100 µM	4.74 µM	28.5 µM	77.6 µM	> 100 µM	63.9 µM	> 100 µM	> 100 µM	> 100 µM	87.4 µM	> 100 µM	25.2 µM	68.6 µM	49.4 µM	> 100 µM	21.5 µM	> 100 µM
